This is an account of results in PubChem BioAssay (NCI).

Several values for one entry are separate records, joined by “and”; a condition that tells them apart may be missing. Equal entries are not always repeated.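 In this assay, cells in 96-well plates receive the compound at five concentrations for 48 hours. Endpoints are linearly interpolated between the surrounding concentrations. GI50 is the concentration that inhibits growth by half. Definition used: TGI = concentration required for complete inhibition of growth.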 Where only a bound is given, the exact number is not on record here.

Among the test systems are DU-145 prostate; NCI/ADR-RES ovarian; BT-549 breast; HS 578T breast; MDA-MB-435.
What all share (assay): NCI anticancer screen, dose series, 48 h

As for `O=C(/C=C/c1ccccc1)CC(c1ccccc1)N1CCOCC1` (stereo unspecified), the GI50 in the test on DU-145 prostate was 3.49 µM; in the test on NCI/ADR-RES ovarian, 3.37 µM; in the test with BT-549 breast it was 1.86 µM; in the test on HS 578T breast it was 4.25 µM; in the test with MDA-MB-435 it was 1.91 µM. Besides, the TGI in the test with DU-145 prostate turned out to be 10.9 µM; in the test with NCI/ADR-RES ovarian, 16.3 µM; in the test with BT-549 breast, 3.62 µM; with HS 578T breast, 55 µM; in the test on MDA-MB-435 it was 4.58 µM.

As for `C=CCOC(=O)CC[N+]1=CCC(c2ccccc2)(c2ccccc2)O1`, the TGI in the test on DU-145 prostate, with BT-549 breast, in the test with HS 578T breast and in the test with MDA-MB-435 was more than 100 µM in each case.

Consider `CCC1=C[C@@H]2CN(C1)Cc1c([nH]c3ccccc13)[C@@](C(=O)OC)(c1cc3c(cc1OC)N(C)[C@H]1[C@@](O)(C(=O)OC)[C@H](OC(C)=O)[C@]4(CC)[C@@H]5C[C@@H]5CN5CC[C@]31[C@@H]54)C2`, for which the GI50 in the test on DU-145 prostate is less than 0.005 µM; in the test on NCI/ADR-RES ovarian, 0.111 µM and 0.662 µM. In addition, the TGI is 2.82 µM and 22.6 µM with NCI/ADR-RES ovarian; 3.46 µM and 17.5 µM in the test with BT-549 breast.

Regarding `Cc1nc(Nc2n[nH]c3c2CN(C(=O)N[C@H](CN(C)C)c2ccccc2)C3(C)C)c2sccc2n1`, the GI50 was 0.156 µM and 0.317 µM with DU-145 prostate; > 3.65 µM and 17.5 µM in the test with NCI/ADR-RES ovarian; 0.393 µM and 0.189 µM in the test on BT-549 breast; 0.144 µM and 0.469 µM in the test on HS 578T breast; 0.0272 µM and 0.0275 µM in the test with MDA-MB-435. Moreover, the TGI is > 10 µM and 15.9 µM in the test with DU-145 prostate; more than 100 µM in the test with NCI/ADR-RES ovarian; 3.63 µM and 3.12 µM with BT-549 breast; > 5.44 µM and 14.7 µM with HS 578T breast; > 3.52 µM and 3.35 µM in the test with MDA-MB-435.

`c1ccc(Cn2cnc3ccc(-c4nc(-c5ccc6c(c5)ncn6C5CCCCC5)cn5ccnc45)cc32)cc1`: the GI50 in the test on DU-145 prostate is 3.04 µM; in the test with NCI/ADR-RES ovarian, 1.98 µM; in the test with BT-549 breast, 1.2 µM; in the test with HS 578T breast it was 2.71 µM. For the same compound, the TGI in the test on DU-145 prostate was 21 µM; in the test with NCI/ADR-RES ovarian it was 5.43 µM; in the test on BT-549 breast, 2.68 µM; with HS 578T breast, more than 100 µM.

Take `O=S(=O)(CCOCc1ccc(-c2ccc3ncnc(Nc4ccc(OCc5cccc(F)c5)c(Cl)c4)c3c2)o1)c1ccccc1`: the GI50 was more than 25 µM in the test on DU-145 prostate; more than 25 µM in the test with NCI/ADR-RES ovarian; more than 25 µM in the test with BT-549 breast; more than 11 µM in the test on HS 578T breast; more than 25 µM in the test on MDA-MB-435. In addition, the TGI with DU-145 prostate, in the test with NCI/ADR-RES ovarian, in the test with BT-549 breast, in the test with HS 578T breast and with MDA-MB-435 was more than 25 µM throughout.

Regarding `CNC(=O)c1cc2c(Oc3ccc(NC(=O)C4(C(=O)Nc5ccc(F)cc5)CC4)cc3)ccnc2cc1OC`, the GI50 is 4.06 µM in the test with DU-145 prostate; 3.56 µM with NCI/ADR-RES ovarian; 3.01 µM with BT-549 breast; 1.11 µM in the test on HS 578T breast; 2.28 µM with MDA-MB-435. Further, the TGI in the test on DU-145 prostate was more than 100 µM; with NCI/ADR-RES ovarian it was more than 100 µM; in the test with BT-549 breast, 9.6 µM; with HS 578T breast it was 4.69 µM; with MDA-MB-435, 6.64 µM.

Take `O=S1(=O)NCCCN1CCNc1nccc(-c2c(-c3cccc(O)c3)nc3sccn23)n1`: the GI50 with DU-145 prostate was 15.9 µM; in the test with NCI/ADR-RES ovarian it was more than 100 µM; in the test on BT-549 breast, 24.3 µM; in the test on HS 578T breast, 10.8 µM; with MDA-MB-435 it was 0.563 µM. Also, the TGI with DU-145 prostate is more than 100 µM; in the test on NCI/ADR-RES ovarian, more than 100 µM; in the test on BT-549 breast it was more than 100 µM; with HS 578T breast, more than 81.4 µM; with MDA-MB-435 it was more than 100 µM.

Take `O=C(c1ccc2ccccc2c1)c1c(C(F)(F)F)n([O-])c2ccc(Cl)cc2[n+]1=O`: the GI50 in the test on DU-145 prostate was 1.47 µM; in the test on NCI/ADR-RES ovarian, 1.89 µM; with BT-549 breast, 1.6 µM; in the test on HS 578T breast, 1.79 µM; with MDA-MB-435, 1.66 µM. Further, the TGI with DU-145 prostate came to 2.79 µM; in the test on NCI/ADR-RES ovarian, 3.86 µM; with BT-549 breast, 2.99 µM; in the test with HS 578T breast, 3.72 µM; with MDA-MB-435, 3.17 µM.

For the compound `O=C(O)CCC(NC(=S)S)C(=O)O.[Na+].[Zn+2]` (stereo unspecified), the GI50 with DU-145 prostate, in the test on NCI/ADR-RES ovarian, in the test on BT-549 breast, with HS 578T breast and in the test on MDA-MB-435 was more than 50 µM throughout. In addition, the TGI in the test on DU-145 prostate, with NCI/ADR-RES ovarian, in the test with BT-549 breast, in the test on HS 578T breast and with MDA-MB-435 was more than 50 µM each time.

Consider `NC(=O)c1cccc(Nc2nccc(Nc3cccc(F)c3)n2)c1`, for which the GI50 was 8.1 µM in the test on DU-145 prostate; 8.75 µM with NCI/ADR-RES ovarian; 10.3 µM in the test with BT-549 breast; 6.23 µM in the test with HS 578T breast; 6.15 µM in the test on MDA-MB-435. Further, the TGI with DU-145 prostate, in the test with NCI/ADR-RES ovarian, in the test with BT-549 breast, with HS 578T breast and in the test on MDA-MB-435 was more than 25 µM in each case.

As for `CCN(CC)CCNC(=O)c1c(C)[nH]c(/C=C2\C(=O)Nc3ccc(F)cc32)c1C`, the GI50 in the test with DU-145 prostate was 3.73 µM and 2.83 µM and 2.19 µM; in the test on NCI/ADR-RES ovarian, > 10 µM and 4.48 µM and 5.31 µM; in the test on BT-549 breast, 4.84 µM and 3.32 µM and 3.67 µM; with HS 578T breast, 3.01 µM and 3.57 µM and 2.4 µM; in the test with MDA-MB-435 it was 2.8 µM and 1.63 µM and 1.78 µM. In addition, the TGI was > 10 µM and 20 µM and 15.5 µM with DU-145 prostate; > 10 µM and 13.4 µM and 17.9 µM in the test with NCI/ADR-RES ovarian; > 10 µM and 6.12 µM and 12.6 µM with BT-549 breast; > 10 µM and 17.7 µM and 15.3 µM in the test on HS 578T breast; > 10 µM and 5.1 µM and 8.49 µM in the test with MDA-MB-435.

As to `CCOC1Oc2ccccc2-c2oc(=O)c(Sc3ccc(C)cc3)cc21` (stereo unspecified), the GI50 in the test on DU-145 prostate was 31.8 µM; in the test on NCI/ADR-RES ovarian, 35 µM; in the test with BT-549 breast, 29.5 µM; in the test on HS 578T breast it was 34.5 µM; in the test on MDA-MB-435, 23.6 µM. The TGI in the test with DU-145 prostate, in the test with NCI/ADR-RES ovarian, in the test on BT-549 breast, in the test with HS 578T breast and in the test with MDA-MB-435 was more than 100 µM each time.

Consider `C[C@H](Cn1ncnn1)Nc1ncc2cc(Oc3ccc(F)cc3F)c(=O)n(C)c2n1`, for which the GI50 with DU-145 prostate, with NCI/ADR-RES ovarian, with BT-549 breast, in the test on HS 578T breast and with MDA-MB-435 was more than 25 µM in each case. In addition, the TGI in the test on DU-145 prostate, in the test with NCI/ADR-RES ovarian, in the test with BT-549 breast, in the test with HS 578T breast and with MDA-MB-435 was more than 25 µM in each case.
